Assay results published in US11498899B2, “Nitrone herbicides” (FMC Corporation, priority 2016, dated 2022).

How the values were obtained:
[1] = tested on: barnyardgrass (Echinochloa crus-galli); experiment: Test A preemergence, visual injury rating 0-100 (0 no effect, 100 complete control); type: in vivo; settings: for Barnyardgrass plant response rating: 31 g ai/ha, 0 to 100 scale (0 no effect, 100 complete control), approx. 10 days; for Barnyardgrass plant response rating (0 to 100 scale): 125 g ai/ha
[2] = tested on: foxtail, green (green foxtail, Setaria viridis); experiment: Test A preemergence, visual injury rating 0-100; type: in vivo; settings: for Foxtail, Green plant response rating: 31 g ai/ha, 0 to 100 scale (0 no effect, 100 complete control), approx. 10 days; for Foxtail, Green plant response rating (0 to 100 scale): 125 g ai/ha
kochia (Kochia scoparia) [3] = experiment: Test A preemergence, visual injury rating 0-100; type: in vivo; settings: for Kochia plant response rating: 31 g ai/ha, 0 to 100 scale (0 no effect, 100 complete control), approx. 10 days; for Kochia plant response rating (0 to 100 scale): 125 g ai/ha
[4] = tested on: pigweed (Amaranthus retroflexus); experiment: Test A preemergence, visual injury rating 0-100; type: in vivo; settings: for Pigweed plant response rating: 31 g ai/ha, 0 to 100 scale (0 no effect, 100 complete control), approx. 10 days; for Pigweed plant response rating (0 to 100 scale): 125 g ai/ha
[5] = tested on: ragweed (common ragweed, Ambrosia elatior); experiment: Test A preemergence, visual injury rating 0-100; type: in vivo; settings: for Ragweed plant response rating: 31 g ai/ha, 0 to 100 scale (0 no effect, 100 complete control), approx. 10 days; for Ragweed plant response rating (0 to 100 scale): 125 g ai/ha
[6] = tested on: ryegrass, Italian (Italian ryegrass, Lolium multiflorum); experiment: Test A preemergence, visual injury rating 0-100; type: in vivo; settings: for Ryegrass, Italian plant response rating: 31 g ai/ha, 0 to 100 scale (0 no effect, 100 complete control), approx. 10 days; for Ryegrass, Italian plant response rating (0 to 100 scale): 125 g ai/ha
[7] = tested on: barnyardgrass (Echinochloa crus-galli); experiment: Test A postemergence, visual injury rating 0-100; type: in vivo; settings: 0 to 100 scale
[8] = tested on: blackgrass (Alopecurus myosuroides); experiment: Test A postemergence, visual injury rating 0-100; type: in vivo; settings: 0 to 100 scale
corn (Zea mays) = experiment: Test A postemergence, visual injury rating 0-100; type: in vivo; settings: 0 to 100 scale
[9] = tested on: foxtail, green (green foxtail, Setaria viridis); experiment: Test A postemergence, visual injury rating 0-100; type: in vivo; settings: 0 to 100 scale
[10] = tested on: galium (catchweed bedstraw, Galium aparine); experiment: Test A postemergence, visual injury rating 0-100; type: in vivo; settings: 0 to 100 scale
kochia (Kochia scoparia) [11] = experiment: Test A postemergence, visual injury rating 0-100; type: in vivo; settings: 0 to 100 scale
[12] = tested on: pigweed (Amaranthus retroflexus); experiment: Test A postemergence, visual injury rating 0-100; type: in vivo; settings: 0 to 100 scale
[13] = tested on: ragweed (common ragweed, Ambrosia elatior); experiment: Test A postemergence, visual injury rating 0-100; type: in vivo; settings: 0 to 100 scale
[14] = tested on: ryegrass, Italian (Italian ryegrass, Lolium multiflorum); experiment: Test A postemergence, visual injury rating 0-100; type: in vivo; settings: 0 to 100 scale
[15] = tested on: wheat (Triticum aestivum); experiment: Test A postemergence, visual injury rating 0-100; type: in vivo; settings: 0 to 100 scale
[16] = tested on: ducksalad (Heteranthera limosa); experiment: Test B flooded paddy test, visual rating 0-100; settings: Flood, 250 g ai/ha, applied to paddy water, rated after 13 to 15 days
[17] = tested on: barnyardgrass (Echinochloa crus-galli); experiment: Test B flooded paddy test, visual rating 0-100; settings: Flood, 250 g ai/ha, applied to paddy water, rated after 13 to 15 days
rice (Oryza sativa) = experiment: Test B flooded paddy test, visual rating 0-100 (0 no effect, 100 complete control); settings: Flood, 250 g ai/ha, applied to paddy water, rated after 13 to 15 days

SMILES | Barnyardgrass plant response rating [1] | Barnyardgrass plant response rating (0 to 100 scale) [1] | Foxtail, Green plant response rating [2] | Foxtail, Green plant response rating (0 to 100 scale) [2] | Kochia plant response rating (kochia (Kochia scoparia) [3]) | Kochia plant response rating (0 to 100 scale) (kochia (Kochia scoparia) [3]) | Pigweed plant response rating [4] | Pigweed plant response rating (0 to 100 scale) [4] | Ragweed plant response rating [5] | Ragweed plant response rating (0 to 100 scale) [5] | Ryegrass, Italian plant response rating [6] | Ryegrass, Italian plant response rating (0 to 100 scale) [6] | Barnyardgrass plant response rating ([7]; 31 g ai/ha) | Barnyardgrass plant response rating ([7]; 125 g ai/ha) | Blackgrass plant response rating ([8]; 31 g ai/ha) | Blackgrass plant response rating ([8]; 125 g ai/ha) | Corn plant response rating (corn (Zea mays); 31 g ai/ha) | Corn plant response rating (corn (Zea mays); 125 g ai/ha) | Foxtail, Green plant response rating ([9]; 31 g ai/ha) | Foxtail, Green plant response rating ([9]; 125 g ai/ha) | further results
CC1=[N+]([O-])[C@H](C(=O)Nc2cccc(F)c2F)[C@@H](c2ccc(C(F)(F)F)cc2)C1 [Compound 30, (2S,3R)—N-(2,3-difluorophenyl)-3,4-dihydro-5-methyl-3-[4-(trifluoromethyl)phenyl]-2H-pyrrole-2-carboxamide 1-oxide] | 100 | 100 | 100 | 100 | 0 | 80 | 0 | 90 | 30 | 90 | 0 | 90 | 30 | 70 | 30 | 60 | 0 | 70 | 30 | 80 | Galium plant response rating ([10]; 31 g ai/ha): 50; Galium plant response rating ([10]; 125 g ai/ha): 50; Kochia plant response rating (kochia (Kochia scoparia) [11]; 31 g ai/ha): 0; Kochia plant response rating (kochia (Kochia scoparia) [11]; 125 g ai/ha): 0; Pigweed plant response rating ([12]; 31 g ai/ha): 20; Pigweed plant response rating ([12]; 125 g ai/ha): 30; Ragweed plant response rating ([13]; 31 g ai/ha): 0; Ragweed plant response rating ([13]; 125 g ai/ha): 40; Ryegrass, Italian plant response rating ([14]; 31 g ai/ha): 20; Ryegrass, Italian plant response rating ([14]; 125 g ai/ha): 50; Wheat plant response rating ([15]; 31 g ai/ha): 40; Wheat plant response rating ([15]; 125 g ai/ha): 50; melting point: 113 to 117 °C; Ducksalad plant response rating (0 to 100 scale) [16]: 100; Barnyardgrass plant response rating (0 to 100 scale) [17]: 85; Rice plant response rating (0 to 100 scale) (rice (Oryza sativa)): 50
CC1=[N+]([O-])[C@H](C(=O)Nc2cccc(F)c2F)[C@@H](c2ccc(C)cc2)C1 [Compound 42, (2S,3R)—N-(2,3-Difluorophenyl)-3,4-dihydro-5-methyl-3-(4-methylphenyl)-2H-pyrrole-2-carboxamide 1-oxide] | 100 | 100 | 100 | 100 | 0 | 90 | 0 | 80 | 0 | 70 | 0 | 80 | 50 | 90 | 80 | 80 | 20 | 50 | 50 | 90 | Galium plant response rating ([10]; 31 g ai/ha): 40; Galium plant response rating ([10]; 125 g ai/ha): 60; Kochia plant response rating (kochia (Kochia scoparia) [11]; 31 g ai/ha): 0; Kochia plant response rating (kochia (Kochia scoparia) [11]; 125 g ai/ha): 30; Pigweed plant response rating ([12]; 31 g ai/ha): 0; Pigweed plant response rating ([12]; 125 g ai/ha): 20; Ragweed plant response rating ([13]; 31 g ai/ha): 0; Ragweed plant response rating ([13]; 125 g ai/ha): 30; Ryegrass, Italian plant response rating ([14]; 31 g ai/ha): 0; Ryegrass, Italian plant response rating ([14]; 125 g ai/ha): 30; Wheat plant response rating ([15]; 31 g ai/ha): 20; Wheat plant response rating ([15]; 125 g ai/ha): 80; Ducksalad plant response rating (0 to 100 scale) [16]: 100; Barnyardgrass plant response rating (0 to 100 scale) [17]: 90; Rice plant response rating (0 to 100 scale) (rice (Oryza sativa)): 30
CC1=[N+]([O-])[C@@H](C(=O)Nc2cccc(F)c2F)[C@H](c2cccc(C(F)(F)F)c2)C1 [Compound 45] | 40 | 100 | 90 | 100 | 0 | 20 | 0 | 0 | 0 | 80 | 10 | 80 | 10 | 50 | 20 | 60 | 40 | 50 | 30 | 80 | Galium plant response rating ([10]; 31 g ai/ha): 20; Galium plant response rating ([10]; 125 g ai/ha): 30; Kochia plant response rating (kochia (Kochia scoparia) [11]; 31 g ai/ha): 0; Kochia plant response rating (kochia (Kochia scoparia) [11]; 125 g ai/ha): 0; Pigweed plant response rating ([12]; 31 g ai/ha): 0; Pigweed plant response rating ([12]; 125 g ai/ha): 20; Ragweed plant response rating ([13]; 31 g ai/ha): 0; Ragweed plant response rating ([13]; 125 g ai/ha): 0; Ryegrass, Italian plant response rating ([14]; 31 g ai/ha): 10; Ryegrass, Italian plant response rating ([14]; 125 g ai/ha): 40; Wheat plant response rating ([15]; 31 g ai/ha): 30; Wheat plant response rating ([15]; 125 g ai/ha): 60; Ducksalad plant response rating (0 to 100 scale) [16]: 95; Barnyardgrass plant response rating (0 to 100 scale) [17]: 75; Rice plant response rating (0 to 100 scale) (rice (Oryza sativa)): 0
